The assay deals with L. amazonensis. In words: In vivo therapeutic response of hamsters experimentally infected with L. amazonensis (hamster model for cutaneous leishmaniasis). The conditions noted are these: for cure rate: hamster model for cutaneous leishmaniasis, L. amazonensis, outcome at end of study (3 months after the end of treatment); for lesion size compared between treatment groups: hamsters infected with L. amazonensis, from the second month after the end of treatment to the end of the study; for activity against Leishmania parasites: leishmanicidal activity as shown in FIG. 4 and FIG. 5. The protocol:
The formulation has been tested in vitro and in vivo for their leishmaninicidal activity.
A. TC1 (1.13 mg), B TC1 (4.01%), C: TC2 (1.35 mg), D: TC2 (3.0%), E: TC3 (1.72 mg), F: TC4 (1.25 mg), G: TC4 (4.03%), H: TC18 (3.0%), I: Mixture 1A, 2A, 3A (4.14%), J: Mixture 1A, 2A, 3A (7.77%), K: meglumina antimoniate (1209 mg), L: Vehicle (100 μl) and M: Vehicle (40 mg).
A. TC1 (1.13 mg), B TC1 (4.01%), C: TC2 (1.35 mg), D: TC2 (3.0%), E: TC3 (1.72 mg), F: TC4 (1.25 mg), G: TC4 (4.03%), H: TC18 (3.0%), I: Mixture 1A, 2A, 3A (4.14%), J: Mixture 1A, 2A, 3A (7.77%), K: meglumina antimoniate (1209 mg), L: Vehicle (100 μl) and M: Vehicle (40 mg). BoT: Beginning of Treatment; EoT: End of treatment. 1mAEoT: 1 month after the end of treatment, 2mAEoT: 2 months after the end of treatment, 3mAEoT: 3 months after the end of treatment. […] The efficacy may be increased using other dose or therapeutic schemes.

Take `O=C(N/N=C1\CCSc2ccccc21)c1ccccc1` [TC1, Benzoic acid, 2-(2,3-dihydro-4H-1-benzothiopyran-4-ylidene)hydrazide]: the cure rate was determined as 77%, the “lesion size compared between treatment groups” value is reported as “lowest lesion size” and the “activity against Leishmania parasites” value is recorded as “exhibited activity”.

With `O=C(N/N=C1\CCSc2ccccc21)c1ccncc1` [TC2, 4-Pyridinecarboxylic acid, 2-(2,3-dihydro-4H-1-benzothiopyran-4-ylidene)hydrazid], the “lesion size compared between treatment groups” value was “lowest lesion size” and the “activity against Leishmania parasites” value is recorded as “exhibited activity”.

Regarding `O=C1CCS(=O)(=O)c2ccccc21` [TC18, Thiochroman-4-one, 1,1-dioxide], the cure rate is given as 63% and the “activity against Leishmania parasites” value is “exhibited activity”.

For the origin of these results see patent US9168268B1, “Saponins and chromans derivatives mixture compositions against leishmaniasis, Trypanosomiasis americana, malaria, Trypanosomiasis africana and Fasciola hepatica” (UNIVERSIDAD DE ANTIOQUIA, priority 2013, dated 2015).
